Source: patent US20230266309A1, “PROTEIN MICROARRAY, USE AND DETECTION METHOD THEREOF” (NATIONAL CHENG KUNG UNIVERSITY, priority 2021, published 2023)

Target: T1, S proteins of wild-type SARS-CoV-2 virus and the SARS-CoV-2 D614G, B.1.1.7, B.1.351, P1, B.1.617, B.1.617.1, B.1.617.2, and B.1.617.3 variants (Homo sapiens, UniProt Q9BYF1)
T1 construct: purchased Sino Biological Inc. (Mainland China)
Assay type: binding
Conditions: FIG. 10; for ACE2 binding to the S protein: SARS-CoV-2 B.1.617.3 variant (excepted from the dose-dependent decrease); for ACE2 binding to the S proteins: wild-type and D614G, B.1.1.7, B.1.351, P1, B.1.617, B.1.617.1, B.1.617.2 variants

T1 sequence (Q9BYF1 18-740, stated change not applied): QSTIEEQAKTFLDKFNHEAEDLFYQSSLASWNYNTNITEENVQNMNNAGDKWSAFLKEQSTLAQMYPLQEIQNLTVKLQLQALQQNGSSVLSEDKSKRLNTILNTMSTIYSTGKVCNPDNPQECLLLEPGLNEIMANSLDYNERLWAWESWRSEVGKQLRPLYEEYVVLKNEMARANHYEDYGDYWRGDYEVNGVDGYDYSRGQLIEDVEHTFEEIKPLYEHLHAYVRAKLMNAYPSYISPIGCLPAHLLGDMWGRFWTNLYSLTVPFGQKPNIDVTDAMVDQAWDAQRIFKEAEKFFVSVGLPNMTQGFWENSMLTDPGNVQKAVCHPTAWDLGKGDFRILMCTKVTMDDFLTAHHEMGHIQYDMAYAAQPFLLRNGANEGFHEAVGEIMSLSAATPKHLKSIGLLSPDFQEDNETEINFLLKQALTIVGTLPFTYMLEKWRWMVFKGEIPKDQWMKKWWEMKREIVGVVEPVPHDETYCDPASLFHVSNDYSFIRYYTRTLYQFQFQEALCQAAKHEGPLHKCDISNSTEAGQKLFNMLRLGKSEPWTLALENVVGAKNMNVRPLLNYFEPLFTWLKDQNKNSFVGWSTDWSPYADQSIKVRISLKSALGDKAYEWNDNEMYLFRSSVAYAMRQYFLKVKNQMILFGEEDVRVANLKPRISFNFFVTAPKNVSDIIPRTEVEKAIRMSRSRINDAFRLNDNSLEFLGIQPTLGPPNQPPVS

With `CCC[C@H](N[C@@H](C)C(=O)N1[C@H](C(=O)O)C[C@@H]2CCCC[C@@H]21)C(=O)OCC` [Perindopril] the “ACE2 binding to the S protein” value was “except for the SARS-CoV-2 B.1.617.3 variant” and the “ACE2 binding to the S proteins” value was “dose-dependently decrease”.

In the case of `CCOC(=O)[C@H](CCc1ccccc1)N[C@@H](C)C(=O)N1[C@H](C(=O)O)C[C@@H]2CCC[C@@H]21` [Ramipril], the “ACE2 binding to the S protein” value is reported as “except for the SARS-CoV-2 B.1.617.3 variant” and the “ACE2 binding to the S proteins” value is reported as “dose-dependently decrease”.
